From ChEMBL document CHEMBL3885881, “DrugMatrix”
“And” between values parts separate entries of the source, which are not always exact repeats. Equal entries are not always repeated.

Species on record: Rattus norvegicus
Test: DrugMatrix - Regimen: Daily Repeat
Format: toxicity, organism-based, Sprague-Dawley
Design: regimen Daily Repeat, gender Male, age 6-8 weeks
Settings: in vivo, ip, route intraperitoneal, vehicle 100 % SALINE; for ABSOLUTE BASOPHIL / ABSOLUTE LYMPHOCYTE / ABSOLUTE MONOCYTE / ABSOLUTE SEGMENTED NEUTROPHIL / BASOPHIL / EOSINOPHIL / ERYTHROCYTE COUNT / HEMATOCRIT / HEMOGLOBIN / LEUKOCYTE COUNT / LYMPHOCYTE / MEAN CORPUSCULAR HEMOGLOBIN / MEAN CORPUSCULAR HEMOGLOBIN CONCENTRATION / MEAN CORPUSCULAR VOLUME / MONOCYTE / NEUTROPHIL / NUCLEATED RED BLOOD CELLS / PLATELET COUNT / ABSOLUTE EOSINOPHIL: tissue Blood; for ALANINE AMINOTRANSFERASE / ALBUMIN / ALKALINE PHOSPHATASE / ASPARTATE AMINOTRANSFERASE / BLOOD UREA NITROGEN / CARBON DIOXIDE / CHLORIDE / CHOLESTEROL / CREATINE PHOSPHOKINASE / CREATININE / GLUCOSE / LACTATE DEHYDROGENASE / LIPASE / PHOSPHORUS / POTASSIUM / SODIUM / TOTAL BILIRUBIN / TOTAL PROTEIN / URIC ACID: tissue Plasma
[1] = 0 mg/kg, 72 h, dose level Control, time 3 day
[2] = 0 mg/kg, 120 h, dose level Control, time 5 day
[3] = 0 mg/kg, […], dose level Control, time 7 day
[4] = 16 mg/kg, 72 h, dose level Low, time 3 day
[5] = 16 mg/kg, […], dose level Low, time 7 day

C=CCO [ALLYL ALCOHOL]
ABSOLUTE BASOPHIL [1]: 0 CELLS/uL | ABSOLUTE LYMPHOCYTE [1]: 13949.83 CELLS/uL and 6988.5 CELLS/uL | ABSOLUTE MONOCYTE [1]: 176.17 CELLS/uL and 88 CELLS/uL | ABSOLUTE SEGMENTED NEUTROPHIL [1]: 1407.33 CELLS/uL and 1041.83 CELLS/uL | BASOPHIL [1]: 0% | EOSINOPHIL [1]: 0% and 0.17% | ERYTHROCYTE COUNT [1]: 5.29 x10E6/uL and 5.73 x10E6/uL | HEMATOCRIT [1]: 33.5% and 35.87% | HEMOGLOBIN [1]: 13.47 G/DL and 13.27 G/DL | LEUKOCYTE COUNT [1]: 15.53 x10E3/uL and 8.13 x10E3/uL | LYMPHOCYTE [1]: 89.5% and 85.83% | MEAN CORPUSCULAR HEMOGLOBIN [1]: 25.5 pg and 23.2 pg | MEAN CORPUSCULAR HEMOGLOBIN CONCENTRATION [1]: 40.27 G/DL and 37 G/DL | MEAN CORPUSCULAR VOLUME [1]: 63.33 fL and 62.63 fL | MONOCYTE [1]: 1.17% | NEUTROPHIL [1]: 9.33% and 12.83% | NUCLEATED RED BLOOD CELLS [1]: 0 /100WBC | PLATELET COUNT [1]: 1100 x10E3/uL and 1294.17 x10E3/uL | ALANINE AMINOTRANSFERASE [1]: 41.5 u/L and 49.17 u/L | ALBUMIN [1]: 3.78 G/DL and 4.35 G/DL | ALKALINE PHOSPHATASE [1]: 267.5 u/L and 415.17 u/L | ASPARTATE AMINOTRANSFERASE [1]: 77.67 u/L and 88.5 u/L | BLOOD UREA NITROGEN [1]: 13.67 mg/dL and 14.33 mg/dL | CARBON DIOXIDE [1]: 28.17 mmol/L and 34.83 mmol/L | CHLORIDE [1]: 100.67 MEQ/L and 98.5 MEQ/L | CHOLESTEROL [1]: 70.67 mg/dL and 75.83 mg/dL | CREATINE PHOSPHOKINASE [1]: 341.83 u/L and 271.83 u/L | CREATININE [1]: 0.15 mg/dL and 0.19 mg/dL | GLUCOSE [1]: 169 mg/dL and 148.17 mg/dL | LACTATE DEHYDROGENASE [1]: 138.5 u/L and 166.33 u/L | LIPASE [1]: 10.33 u/L and 9.2 u/L | PHOSPHORUS [1]: 9.6 mg/dL and 10.37 mg/dL | POTASSIUM [1]: 5.69 MEQ/L and 6.16 MEQ/L | SODIUM [1]: 140.88 MEQ/L and 143.75 MEQ/L | TOTAL BILIRUBIN [1]: 0.2 mg/dL and 0.18 mg/dL | TOTAL PROTEIN [1]: 5.95 G/DL and 6.22 G/DL | URIC ACID [1]: 1.18 mg/dL and 0.92 mg/dL | ABSOLUTE BASOPHIL [2]: 0 CELLS/uL | ABSOLUTE EOSINOPHIL [2]: 9.17 CELLS/uL | ABSOLUTE LYMPHOCYTE [2]: 6359.17 CELLS/uL | ABSOLUTE MONOCYTE [2]: 87.33 CELLS/uL | ABSOLUTE SEGMENTED NEUTROPHIL [2]: 894.33 CELLS/uL | BASOPHIL [2]: 0% | EOSINOPHIL [2]: 0.17% | ERYTHROCYTE COUNT [2]: 5.68 x10E6/uL | HEMATOCRIT [2]: 35.05% | HEMOGLOBIN [2]: 13.22 G/DL | LEUKOCYTE COUNT [2]: 7.35 x10E3/uL | LYMPHOCYTE [2]: 86.33% | MEAN CORPUSCULAR HEMOGLOBIN [2]: 23.32 pg | MEAN CORPUSCULAR HEMOGLOBIN CONCENTRATION [2]: 37.72 G/DL | MEAN CORPUSCULAR VOLUME [2]: 61.82 fL | MONOCYTE [2]: 1.17% | NEUTROPHIL [2]: 12.33% | NUCLEATED RED BLOOD CELLS [2]: 0 /100WBC | PLATELET COUNT [2]: 1231 x10E3/uL | ALANINE AMINOTRANSFERASE [2]: 44.5 u/L | ALBUMIN [2]: 4.47 G/DL | ALKALINE PHOSPHATASE [2]: 372.33 u/L | ASPARTATE AMINOTRANSFERASE [2]: 88.67 u/L | BLOOD UREA NITROGEN [2]: 14.67 mg/dL | CARBON DIOXIDE [2]: 35.33 mmol/L | CHLORIDE [2]: 100.6 MEQ/L | CHOLESTEROL [2]: 75 mg/dL | CREATINE PHOSPHOKINASE [2]: 303.83 u/L | CREATININE [2]: 0.16 mg/dL | GLUCOSE [2]: 135.83 mg/dL | LACTATE DEHYDROGENASE [2]: 137.17 u/L | LIPASE [2]: 9.2 u/L | PHOSPHORUS [2]: 10.42 mg/dL | POTASSIUM [2]: 5.9 MEQ/L | SODIUM [2]: 143.7 MEQ/L | TOTAL BILIRUBIN [2]: 0.18 mg/dL | TOTAL PROTEIN [2]: 6.42 G/DL | URIC ACID [2]: 0.78 mg/dL | ABSOLUTE BASOPHIL [3]: 0 CELLS/uL | ABSOLUTE EOSINOPHIL [3]: 12.33 CELLS/uL | ABSOLUTE LYMPHOCYTE [3]: 8726.33 CELLS/uL | ABSOLUTE MONOCYTE [3]: 135.33 CELLS/uL | ABSOLUTE SEGMENTED NEUTROPHIL [3]: 559.33 CELLS/uL | BASOPHIL [3]: 0% | EOSINOPHIL [3]: 0.17% | ERYTHROCYTE COUNT [3]: 5.5 x10E6/uL | HEMATOCRIT [3]: 34.02% | HEMOGLOBIN [3]: 13.12 G/DL | LEUKOCYTE COUNT [3]: 9.43 x10E3/uL | LYMPHOCYTE [3]: 92.67% | MEAN CORPUSCULAR HEMOGLOBIN [3]: 23.85 pg | MEAN CORPUSCULAR HEMOGLOBIN CONCENTRATION [3]: 38.57 G/DL | MEAN CORPUSCULAR VOLUME [3]: 61.83 fL | MONOCYTE [3]: 1.33% | NEUTROPHIL [3]: 5.83% | NUCLEATED RED BLOOD CELLS [3]: 0 /100WBC | PLATELET COUNT [3]: 1308.83 x10E3/uL | ALANINE AMINOTRANSFERASE [3]: 56 u/L | ALBUMIN [3]: 3.7 G/DL | ALKALINE PHOSPHATASE [3]: 281.17 u/L | ASPARTATE AMINOTRANSFERASE [3]: 78.33 u/L | BLOOD UREA NITROGEN [3]: 15 mg/dL | CARBON DIOXIDE [3]: 30.5 mmol/L | CHLORIDE [3]: 103.33 MEQ/L | CHOLESTEROL [3]: 63.83 mg/dL | CREATINE PHOSPHOKINASE [3]: 253.33 u/L | CREATININE [3]: 0.2 mg/dL | GLUCOSE [3]: 151.17 mg/dL | LACTATE DEHYDROGENASE [3]: 89 u/L | LIPASE [3]: 10.33 u/L | PHOSPHORUS [3]: 9.7 mg/dL | POTASSIUM [3]: 5.46 MEQ/L | SODIUM [3]: 146.28 MEQ/L | TOTAL BILIRUBIN [3]: 0.12 mg/dL | TOTAL PROTEIN [3]: 6.07 G/DL | URIC ACID [3]: 0.65 mg/dL | ABSOLUTE BASOPHIL [4]: 0 CELLS/uL | ABSOLUTE EOSINOPHIL [4]: 0 CELLS/uL | ABSOLUTE LYMPHOCYTE [4]: 14529.5 CELLS/uL | ABSOLUTE MONOCYTE [4]: 274 CELLS/uL | ABSOLUTE SEGMENTED NEUTROPHIL [4]: 1013.17 CELLS/uL | BASOPHIL [4]: 0% | EOSINOPHIL [4]: 0% | ERYTHROCYTE COUNT [4]: 5.55 x10E6/uL | HEMATOCRIT [4]: 35.25% | HEMOGLOBIN [4]: 13.98 G/DL | LEUKOCYTE COUNT [4]: 15.82 x10E3/uL | LYMPHOCYTE [4]: 91.67% | MEAN CORPUSCULAR HEMOGLOBIN [4]: 25.2 pg | MEAN CORPUSCULAR HEMOGLOBIN CONCENTRATION [4]: 39.7 G/DL | MEAN CORPUSCULAR VOLUME [4]: 63.53 fL | MONOCYTE [4]: 1.67% | NEUTROPHIL [4]: 6.67% | NUCLEATED RED BLOOD CELLS [4]: 0 /100WBC | PLATELET COUNT [4]: 1167.33 x10E3/uL | ALANINE AMINOTRANSFERASE [4]: 46.17 u/L | ALBUMIN [4]: 3.8 G/DL | ALKALINE PHOSPHATASE [4]: 266.8 u/L | ASPARTATE AMINOTRANSFERASE [4]: 66.67 u/L | BLOOD UREA NITROGEN [4]: 13 mg/dL | CARBON DIOXIDE [4]: 32.5 mmol/L | CHLORIDE [4]: 100.2 MEQ/L | CHOLESTEROL [4]: 68.67 mg/dL | CREATINE PHOSPHOKINASE [4]: 231.17 u/L | CREATININE [4]: 0.44 mg/dL | GLUCOSE [4]: 143.67 mg/dL | LACTATE DEHYDROGENASE [4]: 122.67 u/L | LIPASE [4]: 8 u/L | PHOSPHORUS [4]: 8.67 mg/dL | POTASSIUM [4]: 6.2 MEQ/L | SODIUM [4]: 141.52 MEQ/L | TOTAL BILIRUBIN [4]: 0.18 mg/dL | TOTAL PROTEIN [4]: 5.57 G/DL | URIC ACID [4]: 1.13 mg/dL | ABSOLUTE BASOPHIL [5]: 0 CELLS/uL | ABSOLUTE EOSINOPHIL [5]: 88.33 CELLS/uL | ABSOLUTE LYMPHOCYTE [5]: 10357.5 CELLS/uL | ABSOLUTE MONOCYTE [5]: 213 CELLS/uL | ABSOLUTE SEGMENTED NEUTROPHIL [5]: 574.5 CELLS/uL | BASOPHIL [5]: 0% | EOSINOPHIL [5]: 1% | ERYTHROCYTE COUNT [5]: 5.67 x10E6/uL | HEMATOCRIT [5]: 35.32% | HEMOGLOBIN [5]: 13.55 G/DL | LEUKOCYTE COUNT [5]: 11.23 x10E3/uL | LYMPHOCYTE [5]: 91.5% | MEAN CORPUSCULAR HEMOGLOBIN [5]: 23.88 pg | MEAN CORPUSCULAR HEMOGLOBIN CONCENTRATION [5]: 38.38 G/DL | MEAN CORPUSCULAR VOLUME [5]: 62.35 fL | MONOCYTE [5]: 1.83% | NEUTROPHIL [5]: 5.67% | NUCLEATED RED BLOOD CELLS [5]: 0 /100WBC | PLATELET COUNT [5]: 1370 x10E3/uL
